The IC50 is the concentration that inhibits the measured activity by half.

The target of the assay is BRD4 (Homo sapiens, UniProt O60885). As to the kind of experiment: Time Resolved Fluorescence Resonance Energy Transfer (TR-FRET) binding assay, BRD4. Particulars: one of the FRET assays described; read-out: FRET BRD4 IC50. In general terms: TR-FRET usually uses a lanthanide donor and a delayed reading to cut background.
Turning to `Cc1nnn(C)c1-c1cnc2c3ccc(C(C)(C)O)cc3n(Cc3ccccc3)c2c1` [Example 69, 2-[5-Benzyl-3-(dimethyl-1H-1,2,3-triazol-5-yl)-5H-pyrido[3,2-b]indol-7-yl]propan-2-ol], the IC50 is less than 5 nM. Regarding `Cc1nnn(C)c1-c1cnc2c3ccc(C(C)(C)O)cc3n([C@H](c3ccc(F)cc3)C3CCOCC3)c2c1` [Example 72], the IC50 is less than 25 nM. `Cc1nnn(C)c1-c1cnc2c3ccc(C(C)(C)O)cc3n([C@H](c3ccccc3F)C3CCOCC3)c2c1` [Example 76]: the half-inhibitory concentration (IC50) is less than 5 nM. Regarding `Cc1nnn(C)c1-c1cnc2c3ccc(C(C)(C)O)cc3n([C@@H](c3ccccc3F)C3CCOCC3)c2c1` [Example 77], the IC50 was less than 5 nM. As to `Cc1noc(C)c1-c1cnc2c3ccc(C(C)(C)O)cc3n([C@H](CCC(F)(F)F)c3ccccc3C(F)(F)F)c2c1` [Example 84], the half-maximal inhibitory concentration (IC50) is less than 1500 nM. The same measure for `Cc1noc(C)c1-c1cnc2c3ccc(C(C)(C)O)cc3n([C@@H](CCC(F)(F)F)c3ccccc3Cl)c2c1` [Example 86]: less than 5 nM; for `Cc1noc(C)c1-c1cnc2c3ccc(C(C)(C)O)cc3n([C@H](CCC(F)(F)F)c3ccccc3Cl)c2c1` [Example 87]: less than 1500 nM.

On to `Cn1nnc(CO)c1-c1cnc2c3ccc(C(C)(C)O)cc3n([C@H](c3ccccc3)C3CCOCC3)c2c1` [Example 88, (S)-2-(3-(4-(Hydroxymethyl)-1-methyl-1H-1,2,3-triazol-5-yl)-5-(phenyl(tetrahydro-2H-pyran-4-yl)methyl)-5H-pyrido[3,2-b]indol-7-yl)propan-2-ol], for which the IC50 is less than 5 nM. As to `COCc1nnn(C)c1-c1cnc2c3ccc(C(C)(C)O)cc3n([C@H](c3ccccc3)C3CCOCC3)c2c1` [Example 89, 2-{3-[4-(Methoxymethyl)-1-methyl-1H-1,2,3-triazol-5-yl]-5-[(S)-oxan-4-yl(phenyl)methyl]-5H-pyrido[3,2-b]indol-7-yl}propan-2-ol], the IC50 was less than 25 nM.

In the case of `[2H][C@@](c1ccccc1)(C1CCOCC1)n1c2cc(C(C)(C)O)ccc2c2ncc(-c3c(C)nnn3C)cc21` [Example 90, 2-[3-(Dimethyl-1H-1,2,3-triazol-5-yl)-5-[(S)-oxan-4-yl(phenyl)(^2H)methyl]-5H-pyrido[3,2-b]indol-7-yl]propan-2-ol], the IC50 is less than 5 nM. Turning to `Cc1nnn(C)c1-c1cnc2c3ccc(C(C)(C)O)cc3n([C@@H](c3ccccc3)C3CCOCC3)c2c1` [Example 91, 2-[3-(dimethyl-1H-1,2,3-triazol-5-yl)-5-[(R)-oxan-4-yl(phenyl)(^2H)methyl]-5H-pyrido[3,2-b]indol-7-yl]propan-2-ol], the 50% inhibitory concentration (IC50) was less than 25 nM.

Consider `[2H][C@@](c1ccccc1F)(C1CCOCC1)n1c2cc(C(C)(C)O)ccc2c2ncc(-c3c(C)nnn3C)cc21` [Example 92, 2-[3-(Dimethyl-1H-1,2,3-triazol-5-yl)-5-[(S)-oxan-4-yl(2-fluorophenyl)(^2H)methyl]-5H-pyrido[3,2-b]indol-7-yl]propan-2-ol], for which the IC50 is less than 5 nM. Turning to `Cc1nnn(C)c1-c1cnc2c3ccc(C(C)(C)O)cc3n([C@@H](c3ccccc3F)C3CCOCC3)c2c1` [Example 93, 2-[3-(dimethyl-1H-1,2,3-triazol-5-yl)-5-[(R)-oxan-4-yl(2-fluorophenyl)(^2H)methyl]-5H-pyrido[3,2-b]indol-7-yl]propan-2-ol], the half-maximal inhibitory concentration (IC50) is less than 5 nM. Turning to `Cc1nnn(C)c1-c1cnc2c3c(F)cc(C(C)(C)O)cc3n([C@H](c3ccccc3F)C3CCOCC3)c2c1` [Example 114, 2-[3-(Dimethyl-1H-1,2,3-triazol-5-yl)-9-fluoro-5-[(S)-(2-fluorophenyl)(oxan-4-yl)methyl]-5H-pyrido[3,2-b]indol-7-yl]propan-2-ol], the concentration for half-maximal inhibition (IC50) is less than 5 nM. As for `Cc1nnn(C)c1-c1cnc2c3c(C(=O)NC4CC4)cccc3n([C@H](c3ccccc3)C3CCOCC3)c2c1` [Example 151, N-Cyclopropyl-3-(dimethyl-1H-1,2,3-triazol-5-yl)-5-[(S)-oxan-4-yl(phenyl)methyl]-5H-pyrido[3,2-b]indole-9-carboxamide], the 50% inhibitory concentration (IC50) is less than 5 nM. In the case of `Cc1nnn(C)c1-c1cnc2c3c(F)ccc(CO)c3n([C@H](c3ccccc3)C3CCOCC3)c2c1` [Example 152, [3-(Dimethyl-1H-1,2,3-triazol-5-yl)-9-fluoro-5-[(S)-oxan-4-yl(phenyl)methyl]-5H-pyrido[3,2-b]indol-6-yl]methanol], the IC50 was less than 5 nM.

Consider `Cc1nnn(C)c1-c1cnc2c3cc(CCC(C)(C)O)ccc3n([C@H](c3ccccc3)C3CCOCC3)c2c1` [Example 153, 4-[3-(Dimethyl-1H-1,2,3-triazol-5-yl)-5-[(S)-oxan-4-yl(phenyl)methyl]-5H-pyrido[3,2-b]indol-8-yl]-2-methylbutan-2-ol], for which the 50% inhibitory concentration (IC50) is less than 5 nM. For `[2H]C([2H])([2H])c1nnn(C)c1-c1cnc2c3ccc(S(C)(=O)=O)cc3n(C(c3ccccc3)C3CCC(F)(F)CC3)c2c1` (stereo not drawn) [Example 158, 5-{5-[(4,4-Difluorocyclohexyl)(phenyl)methyl]-7-methanesulfonyl-5H-pyrido[3,2-b]indol-3-yl}-4-(^2H3)methyl-1-methyl-1H-1,2,3-triazole], the IC50 is less than 5 nM.

On to `[2H]C([2H])([2H])c1nnn(C)c1-c1cnc2c3ccc(S(C)(=O)=O)cc3n(C(c3ccccc3)C3CCC(F)(F)CC3)c2c1` (stereo not drawn) [Example 159, 5-{5-[(4,4-Difluorocyclohexyl)(phenyl)methyl]-7-methanesulfonyl-5H-pyrido[3,2-b]indol-3-yl}-4-(^2H3)methyl-1-methyl-1H-1,2,3-triazole], for which the IC50 is less than 5 nM. The same measure for `Cc1nnn(C)c1-c1cnc2c3c(S(C)(=O)=O)cc(F)c(F)c3n([C@H](c3ccccc3)C3CCOCC3)c2c1` [Example 160, 5-{6,7-Difluoro-9-methanesulfonyl-5-[(S)-oxan-4-yl(phenyl)methyl]-5H-pyrido[3,2-b]indol-3-yl}-1,4-dimethyl-1H-1,2,3-triazole]: less than 5 nM; for `[2H]C([2H])([2H])c1nnn(C)c1-c1cnc2c3c(S(C)(=O)=O)cc(F)c(F)c3n([C@H](c3ccccc3)C3CCOCC3)c2c1` [Example 161, 5-{6,7-Difluoro-9-methanesulfonyl-5-[(S)-oxan-4-yl(phenyl)methyl]-5H-pyrido[3,2-b]indol-3-yl}-4-(^2H3)methyl-1-methyl-1H-1,2,3-triazole]: less than 5 nM; for `[2H]C([2H])([2H])c1nnn(C)c1-c1cnc2c3c(S(C)(=O)=O)cc(OC)c(OC)c3n([C@H](c3ccccc3)C3CCOCC3)c2c1` [Example 162, 5-{9-Methanesulfonyl-6,7-dimethoxy-5-[(S)-oxan-4-yl(phenyl)methyl]-5H-pyrido[3,2-b]indol-3-yl}-4-(^2H3)methyl-1-methyl-1H-1,2,3-triazole]: less than 5 nM. As for `[2H]C([2H])([2H])c1nnn(C)c1-c1cnc2c3c(S(C)(=O)=O)cc(F)c(OC)c3n([C@H](c3ccccc3)C3CCOCC3)c2c1` [Example 163, 5-{7-Fluoro-9-methanesulfonyl-6-methoxy-5-[(S)-oxan-4-yl(phenyl)methyl]-5H-pyrido[3,2-b]indol-3-yl}-4-(^2H3)methyl-1-methyl-1H-1,2,3-triazole], the IC50 was less than 5 nM. Regarding `Cc1noc(C)c1-c1cnc2c3ccc(S(C)(=O)=O)cc3n([C@H](c3ccccc3)C3CCOCC3)c2c1` [Example 171, 4-{7-Methanesulfonyl-5-[(S)-oxan-4-yl(phenyl)methyl]-5H-pyrido[3,2-b]indol-3-yl}-3,5-dimethyl-1,2-oxazole], the IC50 is less than 5 nM.

The record behind these values is patent US10112941B2, “Tricyclic compounds as anticancer agents” (BRISTOL-MYERS SQUIBB COMPANY, priority 2013, dated 2018).
